Laboratory results taken from patent US9206423B2, “Methods of modulating compliance of the trabecular meshwork” (The Regents of the University of California, priority 2012, dated 2015).
Entries after “also recorded” stand apart in the source; their conditions may differ. Marks after values point to notes of the source that are not given here.

Experiments:
Format in all cases: cell-based, human
YAP mRNA = assay: Relative quantitative PCR for YAP mRNA in primary HTM cells on hydrogels or TCP after Lat-B; settings: for Relative quantification of YAP mRNA (mean ± SEM): 2 μM Lat-B, 1 h after treatment, TCP DMSO = 1.0; for YAP mRNA expression versus DMSO: HTM 424 donor (FIG. 8)
Description: (§1) Hydrogel Fabrication. Polyacrylamide hydrogels mimicking the stiffness of the normal (5 kPa) and glaucomatous (75 kPa) HTM were prepared utilizing previously described procedures (McKee et al., 2011; Wood et al., 2011b). Briefly, hydrogels were fabricated and then sterilized with ultraviolet light and rinsed every 24 hours for at least 72 hours in Dulbecco's phosphate buffered solution (DPBS, Hyclone, Logan, Utah) to fully hydrate the hydrogels and to ensure removal of monomeric acrylamide since free acrylamide has been previously shown to disrupt cytoskeletal structure (Arocena, 2006). Following hydration, the hydrogels (10 mm) were adhered to TCP, stored in HTM cell medium, DME/F-12 medium containing 2.5 mM L-glutamine supplemented with 1% penicillin-streptomycin with amphotericin b (Lonza, Walkerville, Md.) and 10% fetal bovine serum (Atlanta Biologicals, Lawrence, Ga.), for 24 hrs and coated with a proprietary fibronectin/collagen (FNC) mixture (AthenaES, Baltimore, Md.) for 20 minutes. The elastic modulus of the hydrogels used were previously validated with atomic force microscopy at 4±2 kPa and 71±5 kPa for the 5 and 75 kPa gels respectively (McKee et al., 2011; Radmacher et al., 1992).
(§2) HTM Cell Isolation and Culture. Primary HTM cells were isolated from corneoscleral rims considered unsuitable for transplant from donors with no prior history of ophthalmic disease as previously described (McKee et al., 2011; Rhee et al., 2003; Wood et al., 2011b). Isolated cells were cultured in HTM cell medium and all studies were conducted using cells prior to the eighth passage. HTM cells were plated at a density of 1.5 ×105 on FNC-coated TCP and 75 kPa hydrogels and 2.5×105 on FNC-coated 5 kPa hydrogels for 24 h prior to Lat-B treatment. The 5 kPa hydrogels were plated a higher density than the other substrates because HTM cells proliferate more slowly on the 5 kPa hydrogels (Wood et al., 2011a), and to ensure that there was enough mRNA present to perform PCR.
(§3) Latrunculin-B Treatment. Lyophilized Lat-B (Cal Biochem, La Jolla, Calif.) was re-suspended to a final concentration of 2.5 mM in dimethyl sulfoxide (DMSO) (Fisher, Pittsburgh, Pa.). Fresh solutions of 2.0 μM Lat-B were prepared in serum free DPBS for all experiments. Control samples were treated with an equivalent concentration of DMSO in serum free DPBS.
(§4) RNA Extraction and Quantitative Real-Time PCR. One hour after treatment with Lat-B or DMSO, RNA was extracted using the Qiagen RNeasy kit following the manufacturer's protocol (Qiagen, Valencia, Calif.). […] The cycle threshold (Ct) ranges were 11-22 for 18S, 23-27 for YAP, 23-34 for WWTR1, 27-32 for 14-3-3σ, 21-30 for CTGF and 17-23 for PAI-1. The 18S ribosomal RNA served as a reference. […] In order to control for slight variations in the amount of RNA loaded into the PCR reactions, the difference in cycle threshold (ΔCt) between the gene of interest (e.g. YAP) and the average cycle threshold (Ct) of the house keeping gene, 18S (ran in triplicate) were calculated. By calculating the difference in ΔCt between an experimental condition and the control condition (TCP DMSO), the experimental data was normalized to the control data. Ratios with respect to this control were calculated for all other values. The protein TAZ is encoded by the WWTR1 gene, for ease of reading, the mRNA obtained from the WWTR1 gene is designated as TAZ mRNA.

14-3-3σ mRNA = assay: Relative quantitative PCR for 14-3-3σ mRNA in primary HTM cells on hydrogels or TCP after Lat-B; settings: for Relative quantification of 14-3-3σ mRNA (mean ± SEM): 2 μM Lat-B, 1 h after treatment, TCP DMSO = 1.0; for 14-3-3σ mRNA expression versus DMSO: HTM 424 donor (FIG. 11); for level of 14-3-3σ mRNA: Example 3 (FIG. 16)
Description: as §1, §2, §3, §4

TAZ mRNA = assay: qPCR for TAZ (WWTR1) mRNA in primary HTM cells after Lat-B
Description: (§5) Hydrogel Fabrication. Polyacrylamide hydrogels mimicking the stiffness of the normal (5 kPa) and glaucomatous (75 kPa) HTM were prepared utilizing previously described procedures (McKee et al., 2011; Wood et al., 2011b). Briefly, hydrogels were fabricated and then sterilized with ultraviolet light and rinsed every 24 hours for at least 72 hours in Dulbecco's phosphate buffered solution (DPBS, Hyclone, Logan, Utah) to fully hydrate the hydrogels and to ensure removal of monomeric acrylamide since free acrylamide has been previously shown to disrupt cytoskeletal structure (Arocena, 2006). […]
(§6) RNA Extraction and Quantitative Real-Time PCR. […] In order to control for slight variations in the amount of RNA loaded into the PCR reactions, the difference in cycle threshold (ΔCt) between the gene of interest (e.g. YAP) and the average cycle threshold (Ct) of the house keeping gene, 18S (ran in triplicate) were calculated. […] Ratios with respect to this control were calculated for all other values. The protein TAZ is encoded by the WWTR1 gene, for ease of reading, the mRNA obtained from the WWTR1 gene is designated as TAZ mRNA.

CTGF mRNA = assay: qPCR for CTGF mRNA in primary HTM cells after Lat-B; settings: stiff (75 kPa) hydrogels, 3 donors, p=0.02
Description: as §5, §6

PAI-1 mRNA = assay: qPCR for PAI-1 mRNA in primary HTM cells after Lat-B; settings: 75 kPa hydrogels, all 3 donors
Description: as §5, §6

YAP [1] = assay: YAP immunofluorescence, nuclear/cytoplasmic localization in HTM cells after Lat-B; settings: Lat-B vs DMSO, one hour after treatment
Description: Fixation and Immunofluoresence. One hour after treatment with Lat-B or DMSO, the cells were rinsed twice with warm DPBS and fixed in warm DPBS with 4% paraformaldehyde (Sigma-Aldrich, St. Louis, Mo.) for 20 min. They were rinsed twice more and permeabilized in DPBS with 0.5% Triton-X100 (Sigma-Aldrich, St. Louis, Mo.). They were rinsed and stored in DPBS until staining Rabbit anti-YAP (H-125, Santa Cruz Biotechnology, Santa Cruz, Calif.) was diluted in PBS containing 0.2% A-type cold fish gelatin (Sigma-Aldrich, St. Louis, Mo.) as a blocking agent. After primary staining, cells were rinsed twice in PBS. Dylight 594-conjugated goat anti-rabbit IgG (Thermo Scientific Pierce, Rockford, Ill.) was similarly diluted. After secondary staining, the cells were again rinsed, counterstained with DAPI (Life Technologies, Carlsbad, Calif.), rinsed a final time, and stored in PBS for imaging. Cells were imaged on an Axiovert 200 M (Carl Zeiss AG, Oberkochen, Germany) inverted microscope with a 20× objective. To mitigate background signal, images were filtered with a 77.5 μm rolling ball background and local median filtering (ImageJ, NIH, Bethesda, Md.).

myocilin (MYOC) mRNA = assay: Myocilin mRNA in HTM cells on hydrogels or TCP after Lat B
Description: (§7) Materials and methods similar to those in Examples 1 and 2 were used. Alternatively or additionally, at least some of the following methods were or can be used for the experiments described hereafter.
(§8) Cell Culture. Primary HTM cells is obtained from normal human donor corneoscleral rims deemed not suitable for transplant (50). HTM cells are cultured in DMEM/F12 medium with 10% fetal bovine serum. Only cells before the 7th passage are used to conduct these studies. Only normal HTM cells are used because growth of cells from glaucomatous HTM is generally not robust enough to guarantee a successful completion of the experiment (51-54). Cells are plated onto hydrogels with Young's moduli of 5 kPa (homeomimetic) or 75 kPa (pathomimetic) that are fabricated to fit in a single well of a standard 6 well culture plate with 300,000 cells per surface. The cells are allowed to attach to the surfaces for 24 hours prior to subsequent experimentation.
(§9) Fabrication of Hydrogel Substrates. Hydrogels are composed of 5.8% acrylamide/0.2% bisacrylamide (5 kPa) or 17.4% acrylamide/0.6% bisacrylamide (75 kPa). Each of the gels contains 4% (v/v) acrylamidoisopropyl trimethyl ammonium chloride. After polymerization, the gels are stored in phosphate buffered saline for two days to allow maximal swelling. One day prior to seeding of the cells on the hydrogels, culture medium with 10% fetal bovine serum is added to the gel to allow the hydrogel to be coated with the various proteins and components present in the serum. The Young's moduli of the hydrogels have been validated by atomic force microscopy (14, 55).
(§10) Real-Time PCR. Real-time PCR is conducted with 70 ng of mRNA using a StepOne PCR machine. Reverse transcription is done for 30 minutes at 50° C. and subsequent PCR is done for 40 cycles of 15 seconds at 95° C. and 1 minute at 60° C.

SPARC mRNA = SPARC mRNA in HTM cells on hydrogels or TCP after Lat B
Description: as §7, §8, §9, §10

HSP90 = assay: Amount of HSP90 in HTM cells after 17-allylamino-17-demethoxygelanamycin; settings: 25 nM
YAP [2] = assay: Expression of YAP in HTM cells after 17-allylamino-17-demethoxygelanamycin; settings: 25 nM
[3] = HTM cells after Lat B treatment (Example 3)
[4] = homeo- and pathomimetic hydrogels, Lat B 30 minutes, seven hours recovery, listed as Lat B
[5] = homeo- and pathomimetic hydrogels, Lat B 30 minutes, seven hours recovery, listed as Latrunculin B
[6] = tissue culture plastic (GPa), after Lat B treatment

## C/C1=C/C(=O)O[C@@H]2C[C@@H](CC[C@H](C)/C=C\CC1)O[C@@](O)([C@@H]1CSC(=O)N1)C2 [Lat-B, Latrunculin-B]
YAP mRNA; 75 kPa hydrogels, one hour after treatment, all three donors, p<0.05
  YAP mRNA versus DMSO: significantly less
YAP mRNA; HTM 211 cells, 5 kPa hydrogel
  Relative quantification of YAP mRNA (mean ± SEM): 0.33 ± 0.01^a ^
YAP mRNA; HTM 211 cells, 75 kPa hydrogel
  Relative quantification of YAP mRNA (mean ± SEM): 0.06 ± 0.01^b, †
YAP mRNA; HTM 211 cells, TCP (>1 GPa)
  Relative quantification of YAP mRNA (mean ± SEM): 0.48 ± 0.0^c, †
YAP mRNA; HTM 424 cells, 5 kPa hydrogel
  Relative quantification of YAP mRNA (mean ± SEM): 0.79 ± 0.06^a, †
YAP mRNA; HTM 424 cells, 75 kPa hydrogel
  Relative quantification of YAP mRNA (mean ± SEM): 0.59 ± 0.05^a, †
YAP mRNA; HTM 424 cells, TCP (>1 GPa)
  Relative quantification of YAP mRNA (mean ± SEM): 1.3 ± 0.39^a
YAP mRNA; HTM 431 cells, 5 kPa hydrogel
  Relative quantification of YAP mRNA (mean ± SEM): 1.6 ± 0.01^a, †
YAP mRNA; HTM 431 cells, 75 kPa hydrogel
  Relative quantification of YAP mRNA (mean ± SEM): 0.83 ± 0.05^b, †
YAP mRNA; HTM 431 cells, TCP (>1 GPa)
  Relative quantification of YAP mRNA (mean ± SEM): 0.55 ± 0.02^c, †
YAP mRNA; [3]
  decrease of YAP mRNA levels: 1.8 fold
YAP mRNA; cells grown on TCP
  YAP mRNA expression versus DMSO: did not have significantly different
YAP mRNA; cells grown on hydrogels
  YAP mRNA expression versus DMSO: significantly less
14-3-3σ mRNA; HTM 211 cells, 5 kPa hydrogel
  Relative quantification of 14-3-3σ mRNA (mean ± SEM): 15 ± 0.82^a
14-3-3σ mRNA; HTM 211 cells, 75 kPa hydrogel
  Relative quantification of 14-3-3σ mRNA (mean ± SEM): 29 ± 1.8^b, †
14-3-3σ mRNA; HTM 211 cells, TCP (>1 GPa)
  Relative quantification of 14-3-3σ mRNA (mean ± SEM): 1.2 ± 0.25^c
14-3-3σ mRNA; HTM 424 cells, 5 kPa hydrogel
  Relative quantification of 14-3-3σ mRNA (mean ± SEM): 4.8 ± 0.12^a, †
14-3-3σ mRNA; HTM 424 cells, 75 kPa hydrogel
  Relative quantification of 14-3-3σ mRNA (mean ± SEM): 5.6 ± 0.51^a, †
14-3-3σ mRNA; HTM 424 cells, TCP (>1 GPa)
  Relative quantification of 14-3-3σ mRNA (mean ± SEM): 0.73 ± 0.20^b ^
14-3-3σ mRNA; HTM 431 cells, 5 kPa hydrogel
  Relative quantification of 14-3-3σ mRNA (mean ± SEM): 1.09 ± 0.02^a ^
14-3-3σ mRNA; HTM 431 cells, 75 kPa hydrogel
  Relative quantification of 14-3-3σ mRNA (mean ± SEM): 1.57 ± 0.11^b, †
14-3-3σ mRNA; HTM 431 cells, TCP (>1 GPa)
  Relative quantification of 14-3-3σ mRNA (mean ± SEM): 0.53 ± 0.02^c, †
14-3-3σ mRNA; cells grown on TCP
  14-3-3σ mRNA expression versus DMSO: did not have significantly different
14-3-3σ mRNA; cells grown on hydrogels
  14-3-3σ mRNA expression versus DMSO: significantly more
14-3-3σ mRNA; softer (homeomimetic) hydrogels
  level of 14-3-3σ mRNA: no effect
14-3-3σ mRNA; stiffer (pathomimetic) hydrogels, listed as Lat B
  level of 14-3-3σ mRNA: increased
14-3-3σ mRNA; stiffer (pathomimetic) hydrogels, listed as Latrunculin B
  level of 14-3-3σ mRNA: doubled
14-3-3σ mRNA; stiffer hydrogels, all three donors (HTM 211, 424, 431)
  14-3-3σ expression versus DMSO: markedly increased
TAZ mRNA; [3]
  decrease of TAZ mRNA levels: 1.9 fold
TAZ mRNA; stiff (75 kPa) hydrogels, 3 donors, P=0.11
  TAZ mRNA versus DMSO: trend towards less; also recorded: markedly less
CTGF mRNA
  CTGF mRNA expression versus DMSO: significantly decreased; also recorded: significantly less
PAI-1 mRNA
  PAI-1 mRNA expression versus DMSO: less and decreased
YAP [1]; 5 kPa hydrogel
  YAP in the nucleus (nuclear localization): dramatic reduction
YAP [1]; TCP
  YAP nuclear localization: some nuclear localization remained
Myocilin (MYOC) mRNA; [4]
  MYOC mRNA levels: significantly reduced
Myocilin (MYOC) mRNA; [5]
  MYOC mRNA levels: significantly decreased
Myocilin (MYOC) mRNA; [6]
  MYOC mRNA levels: no change
SPARC mRNA; [4]
  SPARC mRNA levels: significantly reduced
SPARC mRNA; [5]
  SPARC mRNA levels: significantly decreased
SPARC mRNA; [6]
  SPARC mRNA levels: no change

## C=CCNC1=C2C[C@@H](C)C[C@H](OC)[C@H](O)[C@@H](C)/C=C(\C)[C@H](OC(N)=O)[C@@H](OC)/C=C\C=C(/C)C(=O)NC(=CC1=O)C2=O [17-allylamino-17-demethoxygelanamycin]
HSP90
  reduction of the amount of HSP90: 50%
YAP [2]
  expression of YAP: increased expression
